Measured values from PubChem BioAssay (NCI).
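Cells were grown in 96-well plates and exposed to each compound for 48 hours at five concentrations; endpoints were interpolated linearly between bracketing concentrations, or set to the highest concentration if not reached. GI50 is the concentration that inhibits growth by half. TGI is the concentration that stops growth completely.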

Legend:
Assay in all cases: inhibition of tumour cell growth, NCI panel, 48 h
[1] = test system: A549 NSCLC
[2] = test system: MOLT-4 leukemia
[3] = test system: CAKI-1 renal
[4] = test system: MCF7 breast
[5] = test system: NCI-H522 lung
[6] = test system: HT29 colon
[7] = test system: T-47D breast
[8] = test system: K-562 leukemia
[9] = test system: SNB-75 CNS
[10] = test system: A498 renal
[11] = test system: SW-620 colon
[12] = test system: LOX IMVI melanoma
[13] = test system: BT-549 breast
[14] = test system: IGROV1 ovarian
[15] = test system: U251 CNS
[16] = test system: NCI-H23 lung
[17] = test system: UACC-257 melanoma
[18] = test system: SN12C renal
[19] = test system: HCT-15 colon
[20] = test system: KM12 colon
[21] = test system: SNB-19 CNS
[22] = test system: ACHN renal
[23] = test system: DU-145 prostate
[24] = test system: COLO 205 colon
[25] = test system: SK-MEL-5 melanoma
[26] = test system: HCT-116 colon
[27] = test system: SK-MEL-28 melanoma
[28] = test system: CCRF-CEM leukemia
[29] = test system: PC-3 prostate
[30] = test system: NCI/ADR-RES ovarian
[31] = test system: HCC-2998 colon
[32] = test system: SK-OV-3 ovarian
[33] = test system: MDA-MB-435
[34] = test system: SF-268 CNS
[35] = test system: TK-10 renal
[36] = test system: RPMI-8226 leukemia
[37] = test system: MALME-3M melanoma
[38] = test system: NCI-H226 lung
[39] = test system: NCI-H460 lung
[40] = test system: OVCAR-4 ovarian
[41] = test system: HOP-62 NSCLC
[42] = test system: MDA-MB-231 breast
[43] = test system: M14 melanoma
[44] = test system: OVCAR-3 ovarian
[45] = test system: SF-295 CNS
[46] = test system: HOP-92 NSCLC
[47] = test system: UO-31 renal
[48] = test system: HL-60(TB) leukemia
[49] = test system: HS 578T breast
[50] = test system: SF-539 CNS
[51] = test system: 786-0 renal
[52] = test system: UACC-62 melanoma
[53] = test system: OVCAR-5 ovarian
[54] = test system: SR leukemia
[55] = test system: EKVX NSCLC
[56] = test system: OVCAR-8 ovarian
[57] = test system: SK-MEL-2 melanoma

`CC1=CC(C)=NN=C(N)N1S(=O)(=O)c1cc(C)c(Cl)cc1SCc1ccccc1` gave a GI50 [1] of 31.3 µM, a TGI [1] of over 100 µM and a GI50 [2] of 6.18 µM. The TGI [2] was over 100 µM, the GI50 [3] was over 100 µM and the TGI [3] was over 100 µM. For the same compound, the GI50 [4] was 13.3 µM, the TGI [4] was over 100 µM and the GI50 [5] was 7.78 µM. It also gave a TGI [5] of over 100 µM, a GI50 [6] of 24.5 µM and a TGI [6] of over 100 µM. The GI50 [7] was 4.21 µM, the TGI [7] was 79.1 µM and the GI50 [8] was 9.22 µM. It also gave a TGI [8] of over 100 µM, a GI50 [9] of 23.5 µM and a TGI [9] of over 100 µM. For the same compound, the GI50 [10] was over 100 µM, the TGI [10] was over 100 µM and the GI50 [11] was 24.8 µM. For the same compound, the TGI [11] was over 100 µM, the GI50 [12] was 58.4 µM and the TGI [12] was over 100 µM. For the same compound, the GI50 [13] was 17.8 µM, the TGI [13] was over 100 µM and the GI50 [14] was 46 µM. The TGI [14] was over 100 µM, the GI50 [15] was 16.8 µM and the TGI [15] was over 100 µM. The GI50 [16] was 14.2 µM, the TGI [16] was over 100 µM and the GI50 [17] was 37.6 µM. For the same compound, the TGI [17] was over 100 µM, the GI50 [18] was 32.2 µM and the TGI [18] was over 100 µM. For the same compound, the GI50 [19] was 7.86 µM, the TGI [19] was over 100 µM and the GI50 [20] was 34.6 µM. For the same compound, the TGI [20] was over 100 µM, the GI50 [21] was 30.3 µM and the TGI [21] was over 100 µM. For the same compound, the GI50 [22] was 24.4 µM, the TGI [22] was over 100 µM and the GI50 [23] was 73.4 µM. The TGI [23] was over 100 µM, the GI50 [24] was 27.9 µM and the TGI [24] was over 100 µM. It also gave a GI50 [25] of 40.7 µM, a TGI [25] of over 100 µM and a GI50 [26] of 7.2 µM. The TGI [26] was over 100 µM, the GI50 [27] was 88.5 µM and the TGI [27] was over 100 µM. It also gave a GI50 [28] of 9.15 µM, a TGI [28] of over 100 µM and a GI50 [29] of 6.15 µM. It also gave a TGI [29] of over 100 µM, a GI50 [30] of 8.71 µM and a TGI [30] of over 100 µM. The GI50 [31] was 11.9 µM, the TGI [31] was over 100 µM and the GI50 [32] was 77.7 µM. The TGI [32] was over 100 µM, the GI50 [33] was 21.3 µM and the TGI [33] was over 100 µM. It also gave a GI50 [34] of 35.1 µM, a TGI [34] of over 100 µM and a GI50 [35] of over 100 µM. The TGI [35] was over 100 µM, the GI50 [36] was 5.93 µM and the TGI [36] was over 100 µM. It also gave a GI50 [37] of 49.1 µM, a TGI [37] of over 100 µM and a GI50 [38] of 58.5 µM. For the same compound, the TGI [38] was over 100 µM, the GI50 [39] was 9.22 µM and the TGI [39] was over 100 µM. It also gave a GI50 [40] of 11.5 µM, a TGI [40] of over 100 µM and a GI50 [41] of 72.4 µM. The TGI [41] was over 100 µM, the GI50 [42] was over 100 µM and the TGI [42] was over 100 µM. The GI50 [43] was 21.4 µM, the TGI [43] was over 100 µM and the GI50 [44] was 22.6 µM. It also gave a TGI [44] of over 100 µM, a GI50 [45] of 34.3 µM and a TGI [45] of over 100 µM. It also gave a GI50 [46] of 3.82 µM, a TGI [46] of 38.8 µM and a GI50 [47] of 5.18 µM. The TGI [47] was over 100 µM, the GI50 [48] was 6.75 µM and the TGI [48] was over 100 µM. It also gave a GI50 [49] of over 100 µM, a TGI [49] of over 100 µM and a GI50 [50] of over 100 µM. It also gave a TGI [50] of over 100 µM, a GI50 [51] of 73.4 µM and a TGI [51] of over 100 µM. For the same compound, the GI50 [52] was 12.4 µM, the TGI [52] was over 100 µM and the GI50 [53] was over 100 µM. It also gave a TGI [53] of over 100 µM, a GI50 [54] of 16.5 µM and a TGI [54] of over 100 µM. For the same compound, the GI50 [55] was 6.08 µM, the TGI [55] was over 100 µM and the GI50 [56] was 56.6 µM. For the same compound, the TGI [56] was over 100 µM, the GI50 [57] was 37.2 µM and the TGI [57] was over 100 µM.

Compound `COc1cc2c(c(OC)c1OC)-c1ccc(O)cc1[C@@H](NC(C)=O)CC2` has a GI50 [1] of 0.0666 µM, a TGI [1] of over 100 µM and a GI50 [2] of 0.0578 µM. It also gave a GI50 [3] of 0.183 µM, a TGI [3] of over 39.8 µM and a GI50 [4] of 0.0376 µM. The TGI [4] was over 100 µM, the GI50 [5] was 0.0242 µM and the TGI [5] was 0.097 µM. For the same compound, the GI50 [6] was 0.0339 µM, the TGI [6] was 0.141 µM and the GI50 [7] was 0.0495 µM. For the same compound, the TGI [7] was over 100 µM, the GI50 [8] was 0.0376 µM and the TGI [8] was over 100 µM. For the same compound, the GI50 [10] was 0.0269 µM, the TGI [10] was 0.0956 µM and the GI50 [11] was 0.0409 µM. The TGI [11] was over 100 µM, the GI50 [12] was 0.0803 µM and the TGI [12] was over 100 µM. The GI50 [13] was 0.152 µM, the TGI [13] was over 100 µM and the GI50 [14] was 0.0515 µM. The GI50 [15] was 0.0465 µM, the TGI [15] was over 100 µM and the GI50 [16] was 0.0544 µM. It also gave a TGI [16] of over 100 µM, a GI50 [17] of over 68.3 µM and a TGI [17] of over 100 µM. For the same compound, the GI50 [18] was 0.0897 µM, the TGI [18] was over 100 µM and the GI50 [19] was 0.123 µM. For the same compound, the TGI [19] was over 100 µM, the GI50 [20] was 0.0358 µM and the TGI [20] was 0.224 µM. For the same compound, the GI50 [21] was 0.0554 µM, the TGI [21] was over 100 µM and the GI50 [22] was 0.166 µM. It also gave a TGI [22] of over 100 µM, a GI50 [23] of 0.0365 µM and a TGI [23] of 0.168 µM. For the same compound, the GI50 [24] was 0.0319 µM, the TGI [24] was 0.0859 µM and the GI50 [25] was 0.0412 µM. It also gave a TGI [25] of 0.195 µM, a GI50 [26] of 0.0395 µM and a TGI [26] of over 100 µM. For the same compound, the GI50 [27] was 0.0528 µM, the TGI [27] was over 100 µM and the GI50 [28] was 0.0318 µM. The TGI [28] was 1.62 µM, the GI50 [29] was 0.0456 µM and the TGI [29] was over 100 µM. For the same compound, the GI50 [30] was 0.533 µM, the TGI [30] was 6.78 µM and the GI50 [31] was 0.0465 µM. The TGI [31] was over 100 µM, the GI50 [32] was 0.0377 µM and the TGI [32] was over 100 µM. For the same compound, the GI50 [33] was 0.0206 µM, the TGI [33] was 0.0463 µM and the GI50 [34] was 0.0641 µM. It also gave a TGI [34] of over 29.1 µM, a GI50 [35] of 0.0406 µM and a TGI [35] of over 100 µM. For the same compound, the GI50 [36] was 0.0312 µM, the GI50 [38] was 0.117 µM and the TGI [38] was over 100 µM. It also gave a GI50 [39] of 0.0363 µM, a TGI [39] of over 34.9 µM and a GI50 [40] of 0.0706 µM. For the same compound, the TGI [40] was over 100 µM, the GI50 [41] was 0.051 µM and the TGI [41] was over 100 µM. The GI50 [42] was 0.0689 µM, the TGI [42] was over 100 µM and the GI50 [43] was 0.033 µM. The GI50 [44] was 0.0232 µM, the TGI [44] was 0.0513 µM and the GI50 [45] was 0.0341 µM. The TGI [45] was over 100 µM, the TGI [46] was over 100 µM and the GI50 [47] was 0.279 µM. It also gave a TGI [47] of over 51.2 µM, a GI50 [48] of 0.0227 µM and a TGI [48] of 0.0645 µM. It also gave a GI50 [49] of 0.0371 µM, a GI50 [50] of 0.0261 µM and a GI50 [51] of 0.0779 µM. For the same compound, the TGI [51] was over 100 µM, the GI50 [52] was 0.0582 µM and the TGI [52] was over 100 µM. It also gave a GI50 [53] of 0.215 µM, a TGI [53] of over 100 µM and a GI50 [54] of 0.0265 µM. It also gave a GI50 [55] of 0.0577 µM, a TGI [55] of over 100 µM and a GI50 [56] of 0.0562 µM. It also gave a TGI [56] of over 100 µM, a GI50 [57] of 0.0423 µM and a TGI [57] of over 100 µM.
